# Assay results published in PubChem BioAssay (NCI).
# Values joined by “and” are separate entries in the source; they are usually repeats but may differ in a detail not shown here. Equal entries are not always repeated.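 Step 1: Grow cells in 96-well plates. Step 2: Expose to compound for 48 hours at 5 concentrations. Step 3: Interpolate endpoints linearly; if unreached, use highest concentration. Abbreviation: GI50, concentration required for 50% inhibition of growth. TGI denotes the concentration required for complete inhibition of growth.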
# System: MDA-MB-468 breast
# Test: DTP human tumour cell line panel, 48 h
Structure (SMILES),GI50,TGI
CC(C)[C@H](N)C(=O)N1CCC[C@H]1B(O)O,> 100 µM,> 100 µM
O=C(CCCCCCC(=O)Nc1ccccc1)NO,0.361 µM and 0.899 µM,12.3 µM and 10.8 µM
C#C[C@]1(O)CC[C@H]2[C@@H]3CC=C4c5sc(Nc6ccncc6)nc5CC[C@]4(C)[C@H]3CC[C@@]21C,0.477 µM,2.27 µM
C=C1CCC2C3(C)COC(c4ccc(N(C)C)cc4)OC3CCC2(C)C1C/C=C1/C(=O)OCC1O (configuration not stated),1.44 µM,3.09 µM
Cc1cc(O)c(C(C)C)cc1S(=O)(=O)O (tested in a mixture with another compound),0.273 µM,1.18 µM
COc1ccc2[nH]c(O)c(N=NC(=O)c3oc4ccccc4c3C)c2c1,2.6 µM,6.53 µM
C=C1C(=O)O[C@H]2[C@H]1CC/C(COC(=O)NCc1ccc(Cn3c(=O)sn(CCCl)c3=O)cc1)=C\CC[C@@]1(C)O[C@@H]21,1.78 µM,4.52 µM
O=C(CCCCCCCCC(=O)N/N=C\c1ccccc1O)N/N=C\c1ccccc1O,1.62 µM,5.23 µM
COc1cc(CSc2nc3ccc(C)cc3c(=O)n2-c2ccccc2)cc(OC)c1OC,0.266 µM,2.11 µM
CN(C)CCN1C(=O)c2ccccc2N(C)c2ccccc21,> 100 µM,> 100 µM
COC(=O)c1nc(-c2ccccc2)oc1S(=O)(=O)Cc1ccccc1,1.85 µM,4.02 µM
C=C1C(=O)O[C@H]2[C@H]1CC/C(COC(=O)NCc1cn(C)c3ccccc13)=C\CC[C@@]1(C)O[C@@H]21,0.836 µM,2.95 µM
CC(C)(C)n1cc(-c2ccnc(NCCCNS(=O)(=O)c3ccc(C(F)(F)F)cc3)c2)c(-c2cccc(O)c2)n1,1.88 µM,4.06 µM
COc1cc(NC(C)CCCNC2CN3CCC2CC3)c2ncccc2c1 (configuration not stated),1.71 µM,3.84 µM
c1ccc2[nH]c(-c3ccc(-c4nccc5c4[nH]c4ccccc45)cc3)nc2c1,2.52 µM,6.62 µM
COc1cnc2c(c1)C(=O)c1c-2n(CCCn2ccnc2)c(=O)c2cc(F)ccc12,0.0197 µM,0.154 µM
COc1c(C)c2c(c(O)c1C/C=C(\C)CCC(=O)O)C(=O)OC2,0.515 µM,> 100 µM
CCN(CC)CCCC(C)Nc1ccnc2cc(Oc3ccccc3)ccc12 (configuration not stated),3.06 µM and 3.95 µM,13.3 µM and 15.1 µM
CCCCCCCCCCCCCCCCCCOc1ccccc1CC(=O)OCC[N+]1(C)CCCCC1,1.53 µM,3.83 µM

Structure (SMILES),GI50,TGI
Nc1c(C(=O)c2cccc(-c3ccncc3)c2)cnn1-c1ccc(F)cc1F,2.18 µM,17.9 µM
COc1ccc(-c2c[nH]c(C(=O)O)c2-c2cc(OC)c(OC)c(OC)c2)cc1,2.24 µM,6.78 µM
C=C(C)C(=O)Nc1ccc(NC(C)C)cc1,> 100 µM,> 100 µM
COc1ccc(-c2nc(-c3nc4ccc(OC)cc4[nH]3)c3ccccn23)cc1,4.08 µM,84.5 µM
CC(C)(C)c1ccc(Oc2nccc(-c3c(-c4ccc(F)cc4)ncn3C3CCNCC3)n2)cc1,2.58 µM,5.97 µM
CCN(CC)c1ccc(/C=N/NC(=O)c2ccc(NS(C)(=O)=O)cc2)c(O)c1,0.331 µM,2.93 µM
FC(F)(F)c1ccc(Nc2nc(-c3c(C(F)(F)F)nc4ccccn34)cs2)cc1,0.16 µM,1.04 µM
C[C@H]1[C@H](C)CC[C@]2(CO)CC[C@]3(C)C(=CC[C@@H]4[C@@]5(C)CCCNC(C)(C)[C@@H]5CC[C@]43C)[C@H]12,1.7 µM,3.44 µM
COc1ccc(C(=O)c2cc(OC)c(OC)c(OC)c2)cc1OC(=O)CCl,0.787 µM,–
CCN(CC)CCCCNc1c2ccccc2[n+](C)c2c1[nH]c1ccccc12,0.222 µM,4.85 µM
Cc1c(C(N)=O)sc2c1C(=O)N(Cc1ccccc1)C1=NN=C(c3ccc(Cl)cc3)CN12,1.93 µM,7.54 µM
COc1ccc(C(=O)OC2C(OC3C(O)COC(O[C@H]4C[C@H]5[C@@H]6CC=C7C[C@@H](O)CC[C@]7(C)[C@H]6CC[C@]5(C)[C@H]4[C@H](C)C(=O)CCC(C)C)C3OC(N)=O)OCC(O)C2O)cc1 (some centres not stated),0.0781 µM,1.6 µM
CN[C@@H](C)C(=O)N[C@H](C(=O)N1CCC[C@H]1C(=O)Nc1snnc1-c1ccccc1)C1CCCCC1,16 µM,59.4 µM
CC/C=C1/C(=O)C=C[C@@H]1C/C=C\CCCC(=O)OC,2.31 µM,6.04 µM
C#Cc1c(F)ccc2cc(O)cc(-c3ncc4c(N5CC6CCC(C5)N6)nc(OC[C@@]56CCCN5C[C@H](F)C6)nc4c3F)c12,4.78 µM,11.9 µM
CC(C)(C)OC(=O)N1CCN(CCn2cc(C(F)(F)F)c3c(Cl)ncnc32)CC1,1.92 µM,3.77 µM
COc1ccc(-c2cc(=O)[nH]c3c(OC)c4ccccc4c(OC)c23)cc1,0.557 µM,–
O=C(NNc1nc2cc(F)ccc2n2c(CO)ccc12)c1cnccn1,0.448 µM,3.34 µM
